Results reported in article PMC11096368, “Transcriptomic signature, bioactivity and safety of a non-hepatotoxic analgesic generating AM404 in the midbrain PAG region” (Scientific Reports, 2024).
Like-named read-outs stand apart in the source and are kept apart here.

Experiments:
[1] = system: Chinese Hamster ovary cells; test: In vitro mammalian chromosomal aberration assay; assay type: cell-based; settings: for Doses with cytotoxicity (≥ 45% reduction in cell growth index): non-activated 20-h exposure
Description: In the preliminary toxicity assay, the doses tested ranged from 0.0405 to 405 µg/mL (1 mM), which was the limit dose for this assay (Bioreliance, Rockville, MD USA).
The doses selected for evaluation of chromosome aberrations were 150, 300, and 405 µg/mL for the non-activated and S9-activated 4-h exposure groups; and 10, 40, and 80 µg/mL for the non-activated 20-h exposure group. […] The induction of structural aberrations was outside the 95% control limit of the historical negative control data of 0.00% to 2.79%. […] However, the induction of structural aberrations was within the 95% control limit of the historical negative control data of 0.00% to 4.28%. […] The induction of structural aberrations was outside the 95% control limit of the historical negative control data of 0.00% to 2.68%.
The induction of numerical aberrations was within the 95% control limit of the historical negative control data.

dog = test: Maximum tolerated dose study, single dose (non-GLP); assay type: in vivo
Description: To determine the appropriate doses, maximum tolerated dose studies (non-GLP) were conducted prior to the definitive GLP systemic toxicity studies. SRP-001 was evaluated by a full battery of GLP-compliant toxicity studies. Systemic toxicity was evaluated in Sprague–Dawley rats and Beagle dogs by oral administration over 28 days (Supplementary Fig. 19 and Supplementary Table 2). Importantly, no treatment-related adverse effects were seen during 28 days of daily oral doses of SRP-001 in rats at doses up to 1500 mg/kg/day or in dogs at doses up to 330 mg/kg/day.

beagle dogs [2] = test: Single oral dose (capsule) toxicity and pharmacokinetic study (non-GLP); assay type: in vivo; settings: single dose 300 mg/kg
Description: SRP-001 was prepared into capsules for oral administration. Three experimentally non-naïve Beagle dogs, at least 7 months old and weighing 7.7 to 10 kg prior to treatment initiation, were administered a single dose of 300 mg/kg SRP-001 (Calvert Labs/Altasciences, Scott Township, PA USA). On the day of dosing, animals were observed prior to dose administration, approximately 1–3 h post-dose, and once on day 2. Body weights were recorded for all animals prior to dose administration for the preparation of the capsules. Blood for bioanalytical evaluation was collected at selected timepoints on day 1. Following the completion of the study, surviving animals were not euthanized. They were returned to the Calvert colony for an appropriate washout period before possible use in a subsequent study. […] Plasma samples were collected at seven different time points post-dose.

beagle dogs [3] = test: Two-day oral dose toxicity and pharmacokinetic study (non-GLP); assay type: in vivo
Description: SRP-001 was supplied by Olon Ricerca Bioscience as an off-white powder and then prepared as dosing suspensions for oral administration via gavage (Calvert Labs/Altasciences, Scott Township, PA USA). Six experimentally non-naïve male Beagle dogs (3/dose), at least 7 months old and weighing 7.2 to 10.2 kg prior to treatment initiation, were administered 100 or 900 mg/kg/d SRP-001. Animals were dosed three times daily (3–5 h between doses) for 2 d. Mortality/morbidity was performed twice daily. On the day of dosing, animals were observed prior to each dose administration and approximately 1–3 h after each dose. Animals were also observed once on day 3. Body weights were recorded for all animals prior to the first dose administration on days 1 and 3, and food consumption was recorded daily. Blood for bioanalytical evaluation was collected at selected timepoints on day 1. Following the completion of the study, surviving animals were not euthanized and were returned to the Calvert colony. […]
Following a single administration of 900 mg SRP-001 oral suspension in the fed state, plasma concentrations of SRP-001 were observed from the first sampling time-point of 1 h post-dose for all subjects. […] In a two-day oral dose toxicity and pharmacokinetic (PK) study of […] in Beagle dogs, peak plasma concentrations of SRP-001 were detected within a 30-min to 1-h window post-administration. […]

CD-1 male mice = settings: for Mortality by 72 h: oral gavage, n = 10
Description: This analysis was critical for robustly comparing their toxic effects, with a particular focus on mortality at equivalent molar concentrations.
CD-1 male mice obtained from Charles River Laboratories underwent a one-week acclimation period. They were housed under a 12-h day/night cycle, with unrestricted access to food and water. Before experimentation, mice were fasted for 15 h. […] Each treatment group consisted of 10 mice. Post-dosing, the mice were monitored at 6-h intervals over 72 h for signs of becoming moribund. An investigator blinded to the treatment groups conducted the moribund state assessment.

## CCN(CC)C(=O)c1ccccc1S(=O)(=O)NCC(=O)Nc1ccc(O)cc1 [SRP-001, N,N-diethyl-2-[[2-(4-hydroxyanilino)-2-oxo-ethyl]sulfamoyl]benzamide]
[1]
  Cytotoxicity (≥ 45% reduction in cell growth index): not observed at any dose
  Induction of numerical chromosomal aberrations: negative
  Induction of structural chromosomal aberrations: positive
[1]; Chinese hamster, 20 h, 80 µg/mL
  Structural aberrations: 3.7%
[1]; chromosome aberration assay, non-activated 4-h exposure
  Dose with cytotoxicity (≥ 45% reduction in cell growth index): 405 µg/mL
[1]; chromosome aberration assay
  Doses with cytotoxicity (≥ 45% reduction in cell growth index): ≥ 70 µg/mL
[1]; preliminary toxicity assay
  Doses with cytotoxicity (≥ 45% reduction in cell growth index): ≥ 122 µg/mL
dog
  Single doses that did not result in any mortality: ≤ 1200 mg/kg
Beagle dogs [2]
  Bioavailability (bioanalytical analysis of plasma): poor bioavailability
  Tolerability: well tolerated
Beagle dogs [3]; 3 times daily for 2 days
  Dose tolerated: 900 mg/kg/day
Beagle dogs [3]; dog, in vivo
  Time of peak plasma concentrations post-administration: 30-min to 1-h

## CC(=O)Nc1ccc(O)cc1 [ApAP, acetaminophen, reference compound]
CD-1 male mice; 1984 (ApAP 300 mg/kg)
  Mortality by 72 h: 1/10
CD-1 male mice; 3969 (ApAP 600 mg/kg)
  Mortality by 72 h: 3/10
CD-1 male mice; 5954 (ApAP 900 mg/kg)
  Mortality by 72 h: 7/10
CD-1 male mice; increasing equimolar doses, highest mortality reached
  Mortality within 72 h: 70%
